Data taken from ChEMBL document CHEMBL1150181, “Chemistry of Sponges, VIII. Anomoian A, a Bromotyrosine Derivative from Anomoiantbella popeae” (J Nat Prod, 1990).
The source made the active and inactive calls.

Experiments:
Assay type in all cases: functional, organism-based
Staphylococcus aureus = test: Antimicrobial activity against Staphylococcus aureus at 10 ug/disk
Bacillus subtilis = test: Antimicrobial activity against Bacillus subtilis at 5 ug/disk
Candida albicans = test: Antimicrobial activity against Candida albicans at 25 ug/disk

Measured: Activity

CNC(Cc1cc(Br)c(OC)c(Br)c1)C(=O)NCCCOc1c(Br)cc(CCN(C)C)cc1Br (stereo not drawn)
active: Staphylococcus aureus | Bacillus subtilis | Candida albicans
